Measured values reported in publication PMC6254164, “Synthesis of Novel Hybrid Molecules from Precursors With Known Antiparasitic Activity” (Molecules, 2009).
Like-named read-outs stand apart in the source and are kept apart here.

Key:
[1] = system: Entamoeba histolytica HK-9 strain; experiment: In vitro antiamoebic activity (parasite count, trypan blue); format: cell-based; details: 72 hours at 36-37 °C, six determinations, read-out: Mean IC50 ± SD, Entamoeba histolytica
Protocol: (§1) Entamoeba histolytica HK-9 strain (ATCC number 30015) was cultured in LYI-S-2 medium supplemented with antibiotics. Giardia intestinalis WB strain (ATCC number 30957) was grown in a modified YI-S medium with antibiotics. Both parasites were cultivated in 15-mL screw-capped borosilicate glass tubes containing 13 mL medium. The tubes were incubated on a 15º horizontal slant at (36-37) ºC. Culture maintenance and subculturing was performed as described Entamoeba and Giardia were harvested from confluent cultures by chilling of the tubes on ice for 5-10 min. to detach cells, followed by centrifugation at 800 x g for 5 min.
(§2) Two milligrams of a test compound or a mixture were dissolved in 10 µL of dimethyl sulfoxide (DMSO) and completed with 1 mL growth medium. The solutions were filter sterilized using 0.22 µm syringe filters and the appropriate volumes of the solutions were taken to prepare the concentrations of each compound or reference drug in 15-mL screw-capped borosilicate glass tubes. […] For the control mixtures of the precursor compounds, 1:1 molar ratios were prepared. Each tube was inoculated with 20,000 cells of the parasite under testing (Entamoeba or Giardia). Each compound or mixture was assayed in duplicate in each of three independent experiments. In each assay, the appropriate controls were performed, including the one without any compound or mixture and another with metronidazole as the positive control. The caps of Entamoeba and Giardia tubes were tightly screwed and wrapped with Parafilm. The tubes were incubated on a 15º horizontal slant at 36-37 °C for 72 hours.
(§3) The parasites in each tube were counted using the standard hemacytometer at the 10X objective. In each count, trypan blue was employed to distinguish live from dead parasites. To permit detachment of Entamoeba and Giardia, the tubes were placed on ice for few minutes and the parasites were then centrifuged at 1000 x g for 10 min. The supernatant was discarded and 1 mL fresh medium was added to each tube. The final suspension was prepared by mixing 25 µL of the parasite suspension in each tube with 100 µL of 0.4 % trypan blue in phosphate buffered saline (PBS). The 50% inhibitory concentration (IC50) was employed as a parameter for biological activity. The IC50 is the concentration of compounds which cuts the number of parasites to half that in the negative control (growth medium + DMSO + parasites).

[2] = system: Giardia intestinalis WB strain; experiment: In vitro antigiardial activity (parasite count, trypan blue); format: cell-based; details: 72 hours at 36-37 °C, six determinations, read-out: Mean IC50 ± SD, Giardia intestinalis
Protocol: as §1, §2, §3

[3] = Solubility in DMSO-aqueous medium (bioassay preparation); format: physicochemical
Protocol: The antiamoebic and antigiardial activities of the prepared hybrid molecules 8, 10-a, 12, their precursors, and 1:1 mixtures of these precursors were tested as described, with some modifications. […] Two milligrams of a test compound or a mixture were dissolved in 10 µL of dimethyl sulfoxide (DMSO) and completed with 1 mL growth medium. […] For each preparation, concentrations of 240, 120, 60, 30, 15, 7.5, 3.5, 1.7, 0.8, 0.4, 0.2, 0.1 µg/mL medium were prepared in a final volume of 15 mL to exclude air from the tube. For the control mixtures of the precursor compounds, 1:1 molar ratios were prepared. […] Each compound or mixture was assayed in duplicate in each of three independent experiments. In each assay, the appropriate controls were performed, including the one without any compound or mixture and another with metronidazole as the positive control. The caps of Entamoeba and Giardia tubes were tightly screwed and wrapped with Parafilm. The tubes were incubated on a 15º horizontal slant at 36-37 °C for 72 hours.

Hep-2 cells = experiment: cells; format: cell-based; details: for IC50: 48 hour incubation, six determinations, read-out: Mean IC50 ± SD, Hep-2 cells
Protocol: (§4) The cytotoxicity of the hybrid compounds and the reference drug, metronidazole, was investigated on Hep-2 and Vero cells using the standard cytotoxicity assay and the trypan blue exclusion method. A cell suspension (10^5 cells/mL RPMI medium-10% inactivated foetal calf serum) was prepared from confluent cultures and 100 µL portions of the suspension were added to the wells of 96-well plates. The cells were incubated for 24 h at 37 °C and 5 % CO2 and the medium in each well was then replaced with fresh 150 µL medium. Solutions of the compounds or the reference drug were prepared and sterilized as described in “Antiamoebic and antigiardial activity” section above. Then, 150 µL-two fold serial dilutions of each of the compounds and the reference drug starting at a concentration of 2000 µg/mL in culture medium were prepared in the plates. After 48 hour incubation at 37 °C and 5 % CO2, the number of cells in each well was determined as follows: The medium in each well was gently replaced with 100 µL of 0.25% (w/v) trypsin-0.53 mM EDTA solution and the plates were incubated for 5 min. at 37 °C to allow cell detachment. Two-hundred microliters of trypan blue solution were added to each well and the plates were, then, placed on ice. The cells were counted in a hemacytometer at the 10X objective. Each compound was assayed in duplicate in each of three independent experiments. In each assay the negative controls (without any compound or reference drug) were included in duplicates.

Vero cells = experiment: Cytotoxicity assay, trypan blue exclusion; format: cell-based; details: 48 hour incubation, six determinations, read-out: Mean IC50 ± SD, Vero cells
Protocol: as §4

Molecule: O=C(O)/C=C/c1ccc([N+](=O)[O-])o1 [Compound 7, 5-Nitro-2-furylacrilic acid, reference compound]
- IC50 ([1]; Entamoeba histolytica, 72 h): 94.3 ± 9.76 µM
- IC50 ([2]; Giardia duodenalis, 72 h): 88.4 ± 7.1 µM

Molecule: O=C(/C=C\c1ccc([N+](=O)[O-])o1)N1CCN(c2ccnc3cc(Cl)ccc23)CC1 [Compound 10-b]
- solubility in DMSO-aqueous medium [3]: insolubility

Molecule: 3-(5-nitrofuran-2-yl)-N-[2-(5-nitroimidazol-1-yl)ethyl]acrylamide [Compound 8]
- IC50 [1]: 5.32 ± 0.21 µM
- IC50 [2]: 5.56 ± 0.37 µM
- IC50 (Hep-2 cells): 108 ± 8.02 µM
- IC50 (Vero cells): 90.5 ± 7.83 µM

Molecule: Cc1ncc([N+](=O)[O-])n1CCO [Metronidazole, metronidazole, reference compound]
- IC50 ([1]; Entamoeba histolytica, 72 h): 5.2 ± 1.03 µM
- IC50 ([2]; Giardia duodenalis, 72 h): 5.7 ± 0.78 µM
- IC50 (Hep-2 cells; Homo sapiens, HEp-2): 1460 ± 18.3 µM
- IC50 ratio, Hep-2 and Vero cells versus the tested parasites (Hep-2 cells; IC50 against Hep-2 and Vero cells over IC50 against Entamoeba and Giardia): around 270 times
- IC50 (Vero cells; Chlorocebus sabaeus, Vero): 1500 ± 17.8 µM

Molecule: O=C(/C=C/c1ccc([N+](=O)[O-])o1)N1CCN(c2ccnc3cc(Cl)ccc23)CC1 [Compound 10-a]
- IC50 [1]: 140 ± 6.37 µM
- IC50 ([1]; Entamoeba histolytica, 72 h): ~140 µM
- IC50 [2]: 145 ± 5.37 µM
- IC50 ([2]; Giardia duodenalis, 72 h): ~140 µM
- cytotoxicity at the lethal concentrations against the parasites (Hep-2 cells; Hep-2 and Vero cells): non-cytotoxic
- IC50 (Hep-2 cells; Homo sapiens, HEp-2): 574 ± 7.77 µM
- IC50 (Vero cells; Chlorocebus sabaeus, Vero): 593 ± 8.71 µM

Molecule: Cc1ncc([N+](=O)[O-])n1CCN [Compound 6, 2-(2-Methyl-5-1H-nitroimidazolyl)ethylamine, reference compound]
- IC50 ([1]; Entamoeba histolytica, 72 h): 18.2 ± 2.28 µM
- IC50 ([2]; Giardia duodenalis, 72 h): 18.5 ± 1.43 µM

Molecule: Clc1ccc2c(N3CCNCC3)ccnc2c1 [Compound 9, 7-Chloro-4-(piperazine-1-yl) quinoline, reference compound]
- IC50 ([1]; Entamoeba histolytica, 72 h): 55.7 ± 5 µM
- IC50 ([2]; Giardia duodenalis, 72 h): 67.5 ± 8.67 µM
